The target of one experiment is LIM domain kinase 1 (Homo sapiens, UniProt P53667).
For experiment [1], the target named is T1, Serine/threonine-protein kinase TAO2 (Homo sapiens, UniProt Q9UL54).
T1 sequence (Q9UL54 whole entry): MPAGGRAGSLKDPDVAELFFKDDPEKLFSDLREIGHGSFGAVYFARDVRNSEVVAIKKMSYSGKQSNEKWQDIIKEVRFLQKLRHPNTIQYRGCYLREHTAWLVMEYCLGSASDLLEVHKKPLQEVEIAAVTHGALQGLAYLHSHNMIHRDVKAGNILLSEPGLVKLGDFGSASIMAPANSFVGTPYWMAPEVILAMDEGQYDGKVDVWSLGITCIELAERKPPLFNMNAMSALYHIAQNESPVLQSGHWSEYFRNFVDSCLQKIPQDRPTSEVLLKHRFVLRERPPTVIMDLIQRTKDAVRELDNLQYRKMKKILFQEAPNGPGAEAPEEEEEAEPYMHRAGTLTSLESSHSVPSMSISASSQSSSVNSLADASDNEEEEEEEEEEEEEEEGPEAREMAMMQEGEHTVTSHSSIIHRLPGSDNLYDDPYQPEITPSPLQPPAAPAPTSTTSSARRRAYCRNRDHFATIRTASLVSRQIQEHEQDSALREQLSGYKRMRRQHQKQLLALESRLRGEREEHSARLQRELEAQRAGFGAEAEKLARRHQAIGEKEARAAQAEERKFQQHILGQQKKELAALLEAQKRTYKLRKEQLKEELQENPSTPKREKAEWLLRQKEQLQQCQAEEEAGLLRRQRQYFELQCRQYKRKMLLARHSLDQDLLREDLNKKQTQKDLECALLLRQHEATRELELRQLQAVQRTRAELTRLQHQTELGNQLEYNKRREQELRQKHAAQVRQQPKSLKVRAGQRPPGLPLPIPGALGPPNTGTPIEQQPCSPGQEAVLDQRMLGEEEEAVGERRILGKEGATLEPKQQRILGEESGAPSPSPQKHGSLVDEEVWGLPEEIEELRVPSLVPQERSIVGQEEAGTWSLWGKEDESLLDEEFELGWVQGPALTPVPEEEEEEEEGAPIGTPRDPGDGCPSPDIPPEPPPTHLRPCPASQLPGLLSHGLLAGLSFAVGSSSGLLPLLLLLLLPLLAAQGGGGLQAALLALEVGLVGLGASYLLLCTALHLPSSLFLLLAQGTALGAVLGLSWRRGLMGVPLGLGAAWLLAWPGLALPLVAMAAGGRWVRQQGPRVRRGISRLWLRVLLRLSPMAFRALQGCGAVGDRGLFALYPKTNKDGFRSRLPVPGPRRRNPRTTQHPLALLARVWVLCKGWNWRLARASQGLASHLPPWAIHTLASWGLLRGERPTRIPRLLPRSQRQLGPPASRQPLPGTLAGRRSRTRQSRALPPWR

Experiment [2] concerns the target T2, Serine/threonine-protein kinase NLK (Homo sapiens, UniProt Q9UBE8).
T2 sequence (Q9UBE8 whole entry): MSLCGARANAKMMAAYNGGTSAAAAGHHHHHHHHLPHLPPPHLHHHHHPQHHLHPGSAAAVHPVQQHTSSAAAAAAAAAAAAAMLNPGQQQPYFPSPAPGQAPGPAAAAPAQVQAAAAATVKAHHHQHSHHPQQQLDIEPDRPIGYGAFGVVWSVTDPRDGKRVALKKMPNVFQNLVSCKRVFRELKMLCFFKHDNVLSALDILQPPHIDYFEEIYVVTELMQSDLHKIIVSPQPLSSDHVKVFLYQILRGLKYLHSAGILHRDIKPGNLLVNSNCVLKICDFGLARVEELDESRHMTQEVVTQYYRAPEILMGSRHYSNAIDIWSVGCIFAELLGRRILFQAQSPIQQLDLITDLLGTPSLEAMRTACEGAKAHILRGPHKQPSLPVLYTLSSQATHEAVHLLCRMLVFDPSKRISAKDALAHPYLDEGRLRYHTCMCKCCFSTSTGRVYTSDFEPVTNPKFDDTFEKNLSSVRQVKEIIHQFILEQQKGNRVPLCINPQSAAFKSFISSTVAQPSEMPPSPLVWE

The target in experiment [3] is Ribosomal protein S6 kinase alpha-3 (Homo sapiens, UniProt P51812).
Experiment [4] deals with Elongation factor Tu, mitochondrial (Homo sapiens, UniProt P49411).
Experiment [5] deals with T3, Very long-chain specific acyl-CoA dehydrogenase, mitochondrial (Homo sapiens, UniProt P49748).
T3 sequence (P49748 whole entry): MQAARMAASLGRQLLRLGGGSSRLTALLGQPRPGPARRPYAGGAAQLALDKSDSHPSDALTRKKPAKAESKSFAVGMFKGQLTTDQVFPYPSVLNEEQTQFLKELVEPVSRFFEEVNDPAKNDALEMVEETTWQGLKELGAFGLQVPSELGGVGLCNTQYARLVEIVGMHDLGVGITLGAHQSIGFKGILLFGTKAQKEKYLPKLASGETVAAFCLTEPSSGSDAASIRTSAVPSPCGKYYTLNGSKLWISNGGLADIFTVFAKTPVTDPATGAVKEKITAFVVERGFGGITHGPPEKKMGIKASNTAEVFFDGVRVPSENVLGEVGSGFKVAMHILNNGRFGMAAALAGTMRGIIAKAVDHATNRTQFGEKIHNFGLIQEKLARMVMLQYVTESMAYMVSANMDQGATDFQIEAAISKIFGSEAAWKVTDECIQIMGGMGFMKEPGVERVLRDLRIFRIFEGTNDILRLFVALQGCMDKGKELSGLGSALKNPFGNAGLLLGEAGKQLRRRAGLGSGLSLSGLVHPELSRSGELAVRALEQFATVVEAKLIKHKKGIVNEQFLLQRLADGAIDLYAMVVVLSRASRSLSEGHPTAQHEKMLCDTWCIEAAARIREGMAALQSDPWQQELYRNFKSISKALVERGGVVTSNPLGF

From ChEMBL document CHEMBL3991601, “The target landscape of clinical kinase drugs” (Science, 2017) come the findings set out here.

The source made the active and inactive calls.
Further: in the data inactive means no Kd found up to 30 µM.

Chain of Ribosomal protein S6 kinase alpha-3 (P51812 whole entry): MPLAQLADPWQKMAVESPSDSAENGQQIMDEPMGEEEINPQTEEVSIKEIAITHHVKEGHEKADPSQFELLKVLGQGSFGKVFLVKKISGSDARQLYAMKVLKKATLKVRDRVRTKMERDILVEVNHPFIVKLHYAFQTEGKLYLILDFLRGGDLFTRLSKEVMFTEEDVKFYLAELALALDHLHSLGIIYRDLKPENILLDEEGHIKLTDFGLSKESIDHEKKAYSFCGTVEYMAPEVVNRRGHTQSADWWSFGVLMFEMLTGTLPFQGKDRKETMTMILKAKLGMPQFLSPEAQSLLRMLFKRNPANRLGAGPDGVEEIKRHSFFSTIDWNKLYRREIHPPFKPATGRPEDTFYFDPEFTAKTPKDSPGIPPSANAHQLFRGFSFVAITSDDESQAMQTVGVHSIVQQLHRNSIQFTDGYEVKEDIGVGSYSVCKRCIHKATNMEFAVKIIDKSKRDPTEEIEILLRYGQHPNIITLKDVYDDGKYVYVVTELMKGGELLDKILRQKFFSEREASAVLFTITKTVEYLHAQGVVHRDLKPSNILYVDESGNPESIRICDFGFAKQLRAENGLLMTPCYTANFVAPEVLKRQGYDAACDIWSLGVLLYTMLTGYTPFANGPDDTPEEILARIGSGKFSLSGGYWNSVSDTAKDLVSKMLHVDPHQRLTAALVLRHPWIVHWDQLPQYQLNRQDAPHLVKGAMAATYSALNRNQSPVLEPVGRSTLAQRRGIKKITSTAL
Chain of LIM domain kinase 1 (P53667 whole entry, the tested form may be a part): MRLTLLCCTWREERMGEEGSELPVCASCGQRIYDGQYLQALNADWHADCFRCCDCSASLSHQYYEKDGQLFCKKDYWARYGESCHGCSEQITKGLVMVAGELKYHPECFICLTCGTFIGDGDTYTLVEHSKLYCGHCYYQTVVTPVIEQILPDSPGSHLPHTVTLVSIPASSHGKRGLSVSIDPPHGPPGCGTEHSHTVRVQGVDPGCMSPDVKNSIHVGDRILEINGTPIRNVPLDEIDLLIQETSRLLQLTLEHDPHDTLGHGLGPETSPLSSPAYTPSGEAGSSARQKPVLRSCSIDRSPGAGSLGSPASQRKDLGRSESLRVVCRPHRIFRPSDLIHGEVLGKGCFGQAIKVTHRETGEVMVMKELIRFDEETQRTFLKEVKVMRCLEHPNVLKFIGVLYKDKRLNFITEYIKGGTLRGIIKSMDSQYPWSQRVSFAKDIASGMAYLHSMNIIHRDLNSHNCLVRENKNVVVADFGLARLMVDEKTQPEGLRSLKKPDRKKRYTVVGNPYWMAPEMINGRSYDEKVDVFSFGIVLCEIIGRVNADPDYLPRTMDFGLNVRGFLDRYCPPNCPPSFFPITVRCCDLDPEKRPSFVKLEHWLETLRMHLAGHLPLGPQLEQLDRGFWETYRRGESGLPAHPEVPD

By Kd is commonly meant the free concentration of one partner at which half of the binding sites on the other are occupied at equilibrium, for simple one-to-one binding. For `COc1cc(F)c(F)c(Nc2ccc(I)cc2F)c1NS(=O)(=O)C1(C[C@H](O)CO)CC1` [REFAMETINIB], the Kd (at LIM domain kinase 1; in experiment [1]; in experiment [2]; in experiment [3]; in experiment [4]; in experiment [5]) was > 30 µM (inactive) each time.

Turning to `Cc1ccc(C(=O)Nc2ccc(Oc3cc4cnn(C)c4cc3-c3cn[nH]c3)c(F)c2)c(=O)n1-c1ccc(F)cc1` [MERESTINIB], the Kd (on LIM domain kinase 1; in experiment [1]; in experiment [2]; in experiment [3]; in experiment [4]; in experiment [5]) was > 30 µM (inactive) throughout.

As for `C=CC(=O)Nc1cccc(Nc2nc(Nc3ccc(N4CCN(C(C)=O)CC4)cc3OC)ncc2C(F)(F)F)c1` [ROCILETINIB], the Kd (at LIM domain kinase 1; in experiment [1]; in experiment [2]; in experiment [3]; in experiment [4]; in experiment [5]) was > 30 µM (inactive) each time.

`C=CC(=O)Nc1cc(Nc2nccc(-c3cn(C)c4ccccc34)n2)c(OC)cc1N(C)CCN(C)C` [OSIMERTINIB]: the Kd (on LIM domain kinase 1; in experiment [1]; in experiment [2]; in experiment [3]; in experiment [4]; in experiment [5]) was > 30 µM (inactive) each time.

In the case of `COc1cc(Nc2ncc(F)c(Nc3ccc4c(n3)N(COP(=O)(O)O)C(=O)C(C)(C)O4)n2)cc(OC)c1OC` [FOSTAMATINIB], the Kd (at LIM domain kinase 1; in experiment [1]; in experiment [2]; in experiment [3]; in experiment [4]; in experiment [5]) was > 30 µM (inactive) throughout.

Take `N#CCNC(=O)c1ccc(-c2ccnc(Nc3ccc(N4CCOCC4)cc3)n2)cc1` [MOMELOTINIB]: the Kd (on LIM domain kinase 1; in experiment [1]; in experiment [2]; in experiment [3]; in experiment [4]; in experiment [5]) was > 30 µM (inactive) each time.

In the case of `NC[C@@](O)(c1ccc(Cl)cc1)c1ccc(-c2cn[nH]c2)cc1` [AT-13148], the Kd (at LIM domain kinase 1; in experiment [1]; in experiment [2]; in experiment [3]; in experiment [4]; in experiment [5]) was > 30 µM (inactive) in each case.

Regarding `O=S(=O)(c1cccc2c(O)nccc12)N1CCCNCC1` [HYDROXYFASUDIL], the Kd (on LIM domain kinase 1; in experiment [1]; in experiment [2]; in experiment [3]; in experiment [4]; in experiment [5]) was > 30 µM (inactive) in each case.

Turning to `O=C(O)c1ccc2c(c1)nc(Nc1cccc(Cl)c1)c1ccncc12` [SILMITASERTIB], the Kd (at LIM domain kinase 1; in experiment [1]; in experiment [2]; in experiment [3]; in experiment [4]; in experiment [5]) was > 30 µM (inactive) throughout.

Turning to `CCc1nc(C(N)=O)c(Nc2ccc(N3CCC(N4CCN(C)CC4)CC3)c(OC)c2)nc1NC1CCOCC1` [GILTERITINIB], the Kd on LIM domain kinase 1 was > 30 µM (inactive); in experiment [1] it was 2.09 µM (active); in experiment [2], > 30 µM (inactive); in experiment [3], 2.66 µM (active); in experiment [4] it was 0.464 µM; in experiment [5], > 30 µM (inactive).

In the case of `Cc1c(NC(=O)OC[C@@H]2COCCN2)cn2ncnc(Nc3ccc4c(cnn4Cc4cccc(F)c4)c3)c12` [AC-480], the Kd (on LIM domain kinase 1; in experiment [1]; in experiment [2]; in experiment [3]; in experiment [4]; in experiment [5]) was > 30 µM (inactive) each time.

On to `O[C@H]1CC[C@H](Nc2ncc3nc(Nc4c(F)cc(F)cc4F)n([C@H]4CCOC4)c3n2)CC1` [TANZISERTIB], for which the Kd at LIM domain kinase 1 is 2.17 µM (active); in experiment [1], > 30 µM (inactive); in experiment [2], > 30 µM (inactive); in experiment [3] it was > 30 µM (inactive); in experiment [4], > 30 µM (inactive); in experiment [5] it was > 30 µM (inactive).
